Reference: paper PMC6646865, “Design and Synthesis of Imidazole and Triazole Pyrazoles as Mycobacterium Tuberculosis CYP121A1 Inhibitors” (ChemistryOpen, 2019)
In brackets after ≈: the same amount, converted by molar mass. Read-outs that look alike come from different tables or passages of the source.

Assays:
CYP121A1 [1] = target: T1, CYP121A1 (Mycobacterium tuberculosis, UniProt P9WPP7); experiment: biochemical; assay type: binding; conditions: for Soret peak shift: Soret maximum ligand-free to ligand-bound CYP121A1; for Kd: UV-vis optical titration, 3–5 μM CYP121A1, 25 °C, pH 7.85, triplicate; for Soret maxima shifting by: extent of the Soret absorbance red shift on binding
T1 construct: made in house
T1 sequence (P9WPP7 whole entry): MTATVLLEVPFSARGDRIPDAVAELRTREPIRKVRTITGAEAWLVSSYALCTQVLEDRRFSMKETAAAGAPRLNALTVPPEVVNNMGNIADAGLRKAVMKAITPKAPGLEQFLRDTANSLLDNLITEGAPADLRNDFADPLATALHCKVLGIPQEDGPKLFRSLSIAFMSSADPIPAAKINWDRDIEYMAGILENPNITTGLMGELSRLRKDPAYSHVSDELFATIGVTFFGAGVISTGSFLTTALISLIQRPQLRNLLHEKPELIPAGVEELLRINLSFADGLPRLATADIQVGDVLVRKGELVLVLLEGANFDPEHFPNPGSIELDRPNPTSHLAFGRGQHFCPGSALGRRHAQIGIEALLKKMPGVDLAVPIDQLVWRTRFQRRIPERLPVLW

M. tuberculosis H37Rv [2] = experiment: Antimycobacterial activity, REMA (Resazurin Microtiter Assay) MIC; assay type: cell-based, Mycobacterium tuberculosis; conditions: lowest concentration giving 90 % inhibition, 7 days 37 °C
CYP121A1 [3] = target: T1, CYP121A1; conditions: cited from earlier work; for Soret peak shift: lead compounds and cYY (type I shift for cYY); for Kd: lead compounds and natural substrate cYY; for Soret peak shift to: azole antifungal drugs binding Mtb CYP121A1
M. tuberculosis H37Rv [4] = test system: M. tuberculosis H37Rv; design: method as in PMID 29185746; conditions: lead compounds; cited from earlier work
[5] = Mycobacterium tuberculosis, H37RV, 168 h, read-out: MIC

Structure (SMILES): c1ccc(-n2cc(Cn3ccnc3)c(-c3ccncc3)n2)cc1 [10 a, 4‐(4‐((1H‐Imidazol‐1‐yl)methyl)‐1‐phenyl‐1H‐pyrazol‐3‐yl)pyridine]
- Soret peak shift (CYP121A1 [1]): 416.5 to 419 nm
- Kd (CYP121A1 [1]): 60.5 ± 10.5 µM
- MIC (M. tuberculosis H37Rv [2]; [5]): 12.5 to 25 mg/L (≈ 41.5 to 83 µM)
- MIC (M. tuberculosis H37Rv [2]): 12.5 mg/L (≈ 41.5 µM)
- melting point: 80 to 82 °C

Structure (SMILES): c1ccc(-n2cc(Cn3ccnc3)c(-c3cccnc3)n2)cc1 [10 b, 3‐(4‐((1H‐Imidazol‐1‐yl)methyl)‐1‐phenyl‐1H‐pyrazol‐3‐yl)pyridine]
- Soret peak shift (CYP121A1 [1]): 416.5 to 421 nm
- Kd (CYP121A1 [1]): 53.6 ± 6.8 µM
- MIC (M. tuberculosis H37Rv [2]; [5]): 12.5 to 25 mg/L (≈ 41.5 to 83 µM)
- MIC (M. tuberculosis H37Rv [2]): 12.5 mg/L (≈ 41.5 µM)

Structure (SMILES): CCc1ccc(-c2nn(-c3ccccc3)cc2Cn2ccnc2)cc1 [10 c, 4‐((1H‐Imidazol‐1‐yl)methyl)‐3‐(4‐ethylphenyl)‐1‐phenyl‐1H‐pyrazole]
- Soret peak shift (CYP121A1 [1]): 416.5 to 420 nm
- Kd (CYP121A1 [1]): 18.3 ± 3.4 µM
- MIC (M. tuberculosis H37Rv [2]; [5]): 1.56 mg/L (≈ 4.76 µM)
- melting point: 74 to 76 °C

Structure (SMILES): CCCc1ccc(-c2nn(-c3ccccc3)cc2Cn2ccnc2)cc1 [10 d, 4‐((1H‐Imidazol‐1‐yl)methyl)‐1‐phenyl‐3‐(4‐propylphenyl)‐1H‐pyrazole]
- Soret peak shift (CYP121A1 [1]): 416.5 to 420 nm
- Kd (CYP121A1 [1]): 53.7 ± 5.9 µM
- MIC (M. tuberculosis H37Rv [2]; [5]): 0.781 mg/L (≈ 2.28 µM)

Structure (SMILES): CC(C)c1ccc(-c2nn(-c3ccccc3)cc2Cn2ccnc2)cc1 [10 e, 4‐((1H‐Imidazol‐1‐yl)methyl)‐3‐(4‐isopropylphenyl)‐1‐phenyl‐1H‐pyrazole]
- Soret peak shift (CYP121A1 [1]): 416.5 to 423 nm
- Kd (CYP121A1 [1]): 22.5 ± 3.5 µM
- Soret maxima shifting by (CYP121A1 [1]): 6.5 nm
- MIC (M. tuberculosis H37Rv [2]; [5]): 1.56 mg/L (≈ 4.56 µM)

Structure (SMILES): CC(C)Cc1ccc(-c2nn(-c3ccccc3)cc2Cn2ccnc2)cc1 [10 f, 4‐((1H‐Imidazol‐1‐yl)methyl)‐3‐(4‐isobutylphenyl)‐1‐phenyl‐1H‐pyrazole]
- Soret peak shift (CYP121A1 [1]): 416.5 to 423.5 nm
- Kd (CYP121A1 [1]): 0.22 ± 0.01 µM
- Soret maxima shifting by (CYP121A1 [1]): 7 nm
- MIC (M. tuberculosis H37Rv [2]; [5]): 1.56 mg/L (≈ 4.38 µM)

Structure (SMILES): CC(C)(C)c1ccc(-c2nn(-c3ccccc3)cc2Cn2ccnc2)cc1 [10 g, 4‐((1H‐Imidazol‐1‐yl)methyl)‐3‐(4‐(tert‐butyl)phenyl)‐1‐phenyl‐1H‐pyrazole]
- Soret peak shift (CYP121A1 [1]): 416.5 to 419.5 nm
- Kd (CYP121A1 [1]): 4.81 ± 0.31 µM
- MIC (M. tuberculosis H37Rv [2]; [5]): 1.56 mg/L (≈ 4.38 µM)
- melting point: 116 to 117 °C

Structure (SMILES): c1ccc(-c2ccc(-c3nn(-c4ccccc4)cc3Cn3ccnc3)cc2)cc1 [10 h, 4‐((1H‐Imidazol‐1‐yl)methyl)‐3‐([1,1′‐biphenyl]‐4‐yl)‐1‐phenyl‐1H‐pyrazole]
- Soret peak shift (CYP121A1 [1]): 416.5 to 423.5 nm
- Kd (CYP121A1 [1]): 2.91 ± 0.14 µM
- Soret maxima shifting by (CYP121A1 [1]): 7 nm
- MIC (M. tuberculosis H37Rv [2]; [5]): 3.12 mg/L (≈ 8.3 µM)
- melting point: 114 to 115 °C

Structure (SMILES): c1ccc(-n2cc(Cn3ccnc3)c(-c3ccc4c(c3)OCO4)n2)cc1 [10 i, 4‐((1H‐Imidazol‐1‐yl)methyl)‐3‐(benzo[d][1,3]dioxol‐5‐yl)‐1‐phenyl‐1H‐pyrazole]
- Soret peak shift (CYP121A1 [1]): 416.5 to 422.5 nm
- Kd (CYP121A1 [1]): 10.1 ± 0.3 µM
- MIC (M. tuberculosis H37Rv [2]; [5]): 3.12 mg/L (≈ 9.07 µM)
- melting point: 62 to 64 °C

Structure (SMILES): Clc1[nH]c2ccccc2c1-c1nn(-c2ccccc2)cc1Cn1ccnc1 [10 j, 3‐(4‐((1H‐Imidazol‐1‐yl)methyl)‐1‐phenyl‐1H‐pyrazol‐3‐yl)‐2‐chloro‐1H‐indole]
- Soret peak shift (CYP121A1 [1]): 416.5 to 423.5 nm
- Kd (CYP121A1 [1]): 3.31 ± 0.05 µM
- Soret maxima shifting by (CYP121A1 [1]): 7 nm
- MIC (M. tuberculosis H37Rv [2]; [5]): 12.5 to 25 mg/L (≈ 33.4 to 66.9 µM)
- MIC (M. tuberculosis H37Rv [2]): 25 mg/L (≈ 66.9 µM)

Structure (SMILES): c1ccc(-n2cc(Cn3cncn3)c(-c3ccncc3)n2)cc1 [11 a, 4‐(4‐((1H‐1,2,4‐Triazol‐1‐yl)methyl)‐1‐phenyl‐1H‐pyrazol‐3‐yl)pyridine]
- Soret peak shift (CYP121A1 [1]): 416.5 to 417.5 nm
- Kd (CYP121A1 [1]): 115 ± 27 µM
- MIC (M. tuberculosis H37Rv [2]; [5]): > 100 mg/L
- melting point: 98 to 100 °C

Structure (SMILES): c1ccc(-n2cc(Cn3cncn3)c(-c3cccnc3)n2)cc1 [11 b, 3‐(4‐((1H‐1,2,4‐Triazol‐1‐yl)methyl)‐1‐phenyl‐1H‐pyrazol‐3‐yl)pyridine]
- Soret peak shift (CYP121A1 [1]): 416.5 to 417.5 nm
- Kd (CYP121A1 [1]): 250 ± 51.6 µM
- MIC (M. tuberculosis H37Rv [2]; [5]): > 100 mg/L
- melting point: 110 to 112 °C

Structure (SMILES): O=C(NCCCn1ccnc1)c1cn(-c2ccccc2)nc1-c1ccncc1 [13 a, N‐(3‐(1H‐Imidazol‐1‐yl)propyl)‐1‐phenyl‐3‐(pyridin‐4‐yl)‐1H‐pyrazole‐4‐carboxamide]
- Soret peak shift (CYP121A1 [1]): 416.5 to 423.5 nm
- Kd (CYP121A1 [1]): 83.2 ± 3.9 µM
- Soret maxima shifting by (CYP121A1 [1]): 7 nm
- MIC (M. tuberculosis H37Rv [2]; [5]): 100 mg/L (≈ 269 µM)
- melting point: 104 to 106 °C

Structure (SMILES): O=C(NCCCn1ccnc1)c1cn(-c2ccccc2)nc1-c1cccnc1 [13 b, N‐(3‐(1H‐Imidazol‐1‐yl)propyl)‐1‐phenyl‐3‐(pyridin‐3‐yl)‐1H‐pyrazole‐4‐carboxamide]
- Soret peak shift (CYP121A1 [1]): 416.5 to 417.5 nm
- Kd (CYP121A1 [1]): 85.6 ± 12.4 µM
- MIC (M. tuberculosis H37Rv [2]; [5]): > 100 mg/L
- melting point: 80 to 82 °C

Structure (SMILES): O=C(NCc1ccncc1)c1cn(-c2ccccc2)nc1-c1ccncc1 [14 a, 1‐Phenyl‐3‐(pyridin‐4‐yl)‐N‐(pyridin‐4‐ylmethyl)‐1H‐pyrazole‐4‐carboxamide]
- Soret peak shift (CYP121A1 [1]): 416.5 to 419.5 nm
- Kd (CYP121A1 [1]): 219 ± 13.6 µM
- MIC (M. tuberculosis H37Rv [2]; [5]): > 100 mg/L
- melting point: 206 to 208 °C

Structure (SMILES): O=C(NCc1ccncc1)c1cn(-c2ccccc2)nc1-c1cccnc1 [14 b, 1‐Phenyl‐3‐(pyridin‐3‐yl)‐N‐(pyridin‐4‐ylmethyl)‐1H‐pyrazole‐4‐carboxamide]
- Soret peak shift (CYP121A1 [1]): 416.5 to 417.5 nm
- Kd (CYP121A1 [1]): 39 ± 8.2 µM
- MIC (M. tuberculosis H37Rv [2]; [5]): > 100 mg/L
- melting point: 206 to 208 °C

Structure (SMILES): Clc1ccccc1C(c1ccccc1)(c1ccccc1)n1ccnc1 [Clotrimazole, clotrimazole, reference compound]
- MIC (M. tuberculosis H37Rv [2]; [5]): 20 mg/L (≈ 58 µM)

Structure (SMILES): c1ccc(-c2nn(-c3ccccc3)cc2Cn2ccnc2)cc1 [Compound 1, (1,3‐diphenyl)‐4‐((1,3‐imidazol‐1‐yl)methyl)‐1H‐pyrazole]
- Soret peak shift (CYP121A1 [3]): 416.5 to 424 nm
- Kd (CYP121A1 [3]): 2.6 ± 0.2 µM
- MIC (M. tuberculosis H37Rv [4]): 12.5 mg/L (≈ 41.6 µM)

Structure (SMILES): c1ccc(-c2nn(-c3ccccc3)cc2Cn2cncn2)cc1 [Compound 2, 1‐((1,3‐diphenyl‐1H‐pyrazol‐4‐yl)methyl)‐1H‐1, 2, 4triazole]
- Soret peak shift (CYP121A1 [3]): 416.5 to 422.5 nm
- Kd (CYP121A1 [3]): 73.5 ± 0.7 µM
- MIC (M. tuberculosis H37Rv [4]): 50 mg/L (≈ 166 µM)

Structure (SMILES): COc1ccc(-n2nc(Cn3ccnc3)cc2C)cc1 [Compound 23, 3‐((1H‐Imidazol‐1‐yl)methyl)‐1‐(4‐methoxyphenyl)‐5‐methyl‐1H‐pyrazole]
- Soret peak shift (CYP121A1 [1]): 416.5 to 418 nm
- Kd (CYP121A1 [1]): 34.5 ± 4.8 µM

Structure (SMILES): COc1ccc(-n2nc(Cn3cncn3)cc2C)cc1 [Compound 24, 1‐((1‐(4‐Methoxyphenyl)‐5‐methyl‐1H‐pyrazol‐3‐yl)methyl)‐1H‐1,2,4‐triazole]
- Soret peak shift (CYP121A1 [1]): 416.5 to 418 nm
- Kd (CYP121A1 [1]): 105 ± 7 µM
- MIC (M. tuberculosis H37Rv [2]; [5]): > 100 mg/L

Structure (SMILES): COc1ccc(-n2nc(C)cc2Cn2ccnc2)cc1 [Compound 25, 5‐((1H‐Imidazol‐1‐yl)methyl)‐1‐(4‐methoxyphenyl)‐3‐methyl‐1H‐pyrazole]
- Soret peak shift (CYP121A1 [1]): 416.5 to 418.5 nm
- Kd (CYP121A1 [1]): 22.9 ± 0.2 µM
- MIC (M. tuberculosis H37Rv [2]; [5]): 25 mg/L (≈ 93.2 µM)

Structure (SMILES): COc1ccc(-n2nc(C)cc2Cn2cncn2)cc1 [Compound 26, 1‐((1‐(4‐Methoxyphenyl)‐3‐methyl‐1H‐pyrazol‐5‐yl)methyl)‐1H‐1,2,4‐triazole]
- Kd (CYP121A1 [1]): 98.3 ± 7.4 µM
- MIC (M. tuberculosis H37Rv [2]; [5]): 100 mg/L (≈ 371 µM)
- melting point: 47 to 48 °C

Structure (SMILES): OC(Cn1cncn1)(Cn1cncn1)c1ccc(F)cc1F [Fluconazole, fluconazole, reference compound]
- MIC (M. tuberculosis H37Rv [2]; [5]): > 100 mg/L

Structure (SMILES): Clc1ccc(COC(Cn2ccnc2)c2ccc(Cl)cc2Cl)cc1 (centres unmarked) [econazole]
- Soret peak shift to (CYP121A1 [3]): 421–423.5 nm

Structure (SMILES): CC(=O)N1CCN(c2ccc(OCC3COC(Cn4ccnc4)(c4ccc(Cl)cc4Cl)O3)cc2)CC1 (centres unmarked) [ketoconazole]
- Soret peak shift to (CYP121A1 [3]): 421–423.5 nm

Structure (SMILES): Clc1ccc(COC(Cn2ccnc2)c2ccc(Cl)cc2Cl)c(Cl)c1 (centres unmarked) [miconazole]
- Soret peak shift to (CYP121A1 [3]): 421–423.5 nm
